Laboratory results reported in the NIST ThermoML archive (doi:10.1021/acs.jced.6b00168).

Assay: mn = molality of the nth substance listed, in mol/kg
Settings: 100 kPa, Liquid; for speed of sound: Frequency=3 MHz, Sing-around technique in a fixed-path interferometer; for mass density: Vibrating tube method

CC(C)C[C@H](NC(=O)CN)C(=O)O [glycyl-L-leucine] + O
Settings | mass density, 288.15 K [kg/m3] | mass density, 298.15 K [kg/m3] | mass density, 308.15 K [kg/m3] | mass density, 318.15 K [kg/m3] | speed of sound, 288.15 K [m/s] | speed of sound, 298.15 K [m/s] | speed of sound, 308.15 K [m/s] | speed of sound, 318.15 K [m/s]
m1 = 0.01036 | 999.623 | 997.544 | 994.554 | 990.713 | 1468.4 | 1497.4 | 1521 | 1537.6
m1 = 0.02041 | 1000.14 | 998.07 | 995.045 | 991.171 | 1470.1 | 1499 | 1522.6 | 1539.1
m1 = 0.04005 | 1001.13 | 999.05 | 995.995 | 992.11 | 1473.3 | 1502 | 1525.5 | 1542
m1 = 0.06009 | 1002.13 | 999.995 | 996.94 | 993.02 | 1476.6 | 1505.2 | 1528.5 | 1544.9
m1 = 0.08023 | 1003.08 | 1000.95 | 997.866 | 993.927 | 1479.9 | 1508.3 | 1531.5 | 1547.9
m1 = 0.09965 | 1004.02 | 1001.9 | 998.802 | 994.85 | 1483.1 | 1511.3 | 1534.4 | 1550.7
m1 = 0.1502 | 1006.4 | 1004.28 | 1001.19 | 997.236 | 1491.4 | 1519.2 | 1542 | 1558.2
m1 = 0.2014 | 1008.79 | 1006.66 | 1003.57 | 999.61 | 1499.8 | 1527.1 | 1549.7 | 1565.7

CC(C)C[C@H](N)C(=O)O [L-leucine] + O
Settings | mass density, 288.15 K [kg/m3] | mass density, 298.15 K [kg/m3] | mass density, 308.15 K [kg/m3] | mass density, 318.15 K [kg/m3] | speed of sound, 288.15 K [m/s] | speed of sound, 298.15 K [m/s] | speed of sound, 308.15 K [m/s] | speed of sound, 318.15 K [m/s]
m1 = 0.00991 | 999.363 | 997.29 | 994.279 | 990.433 | 1468 | 1497 | 1520.5 | 1537
m1 = 0.02042 | 999.615 | 997.535 | 994.535 | 990.663 | 1469.3 | 1498.2 | 1521.5 | 1538
m1 = 0.04026 | 1000.09 | 998.005 | 994.994 | 991.098 | 1471.8 | 1500.4 | 1523.5 | 1539.8
m1 = 0.06014 | 1000.6 | 998.476 | 995.441 | 991.533 | 1474.2 | 1502.6 | 1525.5 | 1541.7
m1 = 0.0802 | 1001.07 | 998.929 | 995.893 | 991.972 | 1476.7 | 1504.9 | 1527.5 | 1543.5
m1 = 0.1002 | 1001.57 | 999.402 | 996.345 | 992.41 | 1479.2 | 1507.1 | 1529.5 | 1545.3
m1 = 0.1246 | 1002.13 | 999.979 | 996.896 | 992.945 | 1482.3 | 1509.8 | 1532 | 1547.6
m1 = 0.1502 | 1002.71 | 1000.56 | 997.446 | 993.506 | 1485.5 | 1512.7 | 1534.6 | 1550
